In patent US6835726B2, “Pyrimidine derivatives” (priority 1998, dated 2004) one finds IC50 data, which are given here for 36 molecules.

Some results are limits rather than exact numbers.

In this assay the test system is recombinant human cytomegalovirus (HCMV). Put plainly: microbe, parasite or virus in culture. Format: cell-based. Particulars: CMV assay, Table 2; read-out: Antiviral Activity. From the text:
Certain preferred compounds and compositions are capable of specifically inhibiting or suppressing cytomegalovirus infection. For the assessment of activity against human CMV, a method was used which is similar to that described in Kohler, et al., J. Virol. 68:6589-6597 (1994). Briefly, a recombinant human cytomegalovirus (HCMV) was made containing a marker gene (luciferase) under the control of the promoter for the late 28 kDa viral structural phosphoprotein pp28. Human foreskin fibroblast (HFF) cells were infected with the recombinant HCMV virus (MOI 5), placed into 96-well plates, and cultured under standard cell-culture conditions. Compounds that were evaluated for anti-HCMV activity were added to the infected cells 1 hour later. The level of luciferase expression was measured 24 hours after treatment with the test compounds. […] As an additional control, the cytotoxicity of test compounds on untreated HFF cells was also evaluated in cultured cell growth experiments.

With `Cc1nc(NCc2c(F)cccc2Cl)nc(-n2ccnc2C)c1[N+](=O)[O-]`, the IC50 lay in the range of 100 to 500 nM. As for `CCc1nccn1-c1nc(NCc2ccc(F)cc2Cl)nc(C)c1[N+](=O)[O-]`, the IC50 lay within 100 to 500 nM. Turning to `Cc1nc(NCc2ccc(F)cc2C(F)(F)F)nc(-n2ccnc2C)c1[N+](=O)[O-]`, the IC50 lay within 100 to 500 nM.

Turning to `CCc1nccn1-c1nc(NCc2ccc(F)cc2C(F)(F)F)nc(C)c1[N+](=O)[O-]`, the IC50 was in the range of 100 to 500 nM. Turning to `Cc1nc(NCc2ccc(F)cc2Cl)nc(-n2ccnc2C)c1[N+](=O)[O-]`, the IC50 was in the range of 100 to 500 nM. In the case of `Cc1nc(NCc2cc(Cl)cc(Cl)c2)nc(-n2ccnc2C)c1[N+](=O)[O-]` it was 100 to 500 nM; in that of `Cc1nc(NCc2ccc(F)c(C(F)(F)F)c2)nc(-n2ccnc2C)c1[N+](=O)[O-]`, less than 100 nM. Consider `Cc1nc(NCc2cc(F)cc(F)c2)nc(-n2ccnc2C)c1[N+](=O)[O-]`, for which the IC50 is less than 100 nM. In the case of `Cc1nc(NCc2ccccc2OC(F)(F)F)nc(-n2ccnc2C)c1[N+](=O)[O-]`, the IC50 fell in the range of 100 to 500 nM.

Turning to `Cc1nc(NCc2cc(F)cc(F)c2)nc(-n2ccnc2)c1[N+](=O)[O-]`, the IC50 was greater than 500 nM. Consider `Cc1nc(NCc2ccc(F)cc2)nc(-n2ccnc2C)c1[N+](=O)[O-]`, for which the IC50 lay within 100 to 500 nM. In the case of `Cc1nc(NCc2ccc(Cl)c(Cl)c2)nc(-n2ccnc2C)c1[N+](=O)[O-]` it was 100 to 500 nM.

As for `Cc1nc(NCc2cccc(Cl)c2)nc(-n2ccnc2C)c1[N+](=O)[O-]`, the IC50 was less than 100 nM. With `Cc1nc(NCc2ccc(Cl)cc2)nc(-n2ccnc2C)c1[N+](=O)[O-]`, the IC50 is 100 to 500 nM. Turning to `Cc1nc(NCc2cccc(C(F)(F)F)c2)nc(-n2ccnc2C)c1[N+](=O)[O-]`, the IC50 is less than 100 nM.

Take `Cc1ccc(CNc2nc(C)c([N+](=O)[O-])c(-n3ccnc3C)n2)cc1`: the IC50 was greater than 500 nM. Regarding `Cc1nc(NCc2ccccc2Cl)nc(-n2ccnc2C)c1[N+](=O)[O-]`, the IC50 was less than 100 nM. For the molecule `Cc1nc(NCc2cc(C(F)(F)F)cc(C(F)(F)F)c2)nc(-n2ccnc2C)c1[N+](=O)[O-]`, the IC50 was greater than 500 nM. Turning to `Cc1nc(NCc2cc(Cl)ccc2Cl)nc(-n2ccnc2C)c1[N+](=O)[O-]`, the IC50 was less than 100 nM. `Cc1nc(NCc2cccc(Cl)c2Cl)nc(-n2ccnc2C)c1[N+](=O)[O-]`: the IC50 was 100 to 500 nM. `Cc1cccc(CNc2nc(C)c([N+](=O)[O-])c(-n3ccnc3C)n2)c1`: the IC50 was in the range of 100 to 500 nM. Turning to `Cc1nc(NCc2cccc(Br)c2)nc(-n2ccnc2C)c1[N+](=O)[O-]`, the IC50 is less than 100 nM.

`Cc1nc(NCc2cccc(F)c2)nc(-n2ccnc2C)c1[N+](=O)[O-]`: the IC50 lay within 100 to 500 nM.

Turning to `COc1cccc(CNc2nc(C)c([N+](=O)[O-])c(-n3ccnc3C)n2)c1`, the IC50 was 100 to 500 nM.

On to `Cc1nc(NCc2cccnc2)nc(-n2ccnc2C)c1[N+](=O)[O-]`, for which the IC50 was greater than 500 nM. Take `Cc1nc(NCc2ccccn2)nc(-n2ccnc2C)c1[N+](=O)[O-]`: the IC50 was 100 to 500 nM. As to `COc1ccc(CNc2nc(C)c([N+](=O)[O-])c(-n3ccnc3C)n2)cc1OC`, the IC50 lay within 100 to 500 nM. For the molecule `Cc1nc(NCc2cc(F)c(F)c(F)c2)nc(-n2ccnc2C)c1[N+](=O)[O-]`, the IC50 was 100 to 500 nM. Consider `Cc1nc(NCc2c(F)ccc(F)c2F)nc(-n2ccnc2C)c1[N+](=O)[O-]`, for which the IC50 was 100 to 500 nM. Next, `Cc1nc(NCc2cc(F)cc(F)c2F)nc(-n2ccnc2C)c1[N+](=O)[O-]`: 100 to 500 nM.

With `Cc1nc(NCc2ccc(F)c(F)c2F)nc(-n2ccnc2C)c1[N+](=O)[O-]`, the IC50 fell in the range of 100 to 500 nM.

As for `Cc1nc(NCc2ccc(F)c(F)c2)nc(-n2ccnc2C)c1[N+](=O)[O-]`, the IC50 is 100 to 500 nM.

Take `Cc1nc(NCc2cc(C(F)(F)F)ccc2F)nc(-n2ccnc2C)c1[N+](=O)[O-]`: the IC50 is less than 100 nM. As for `Cc1cccc(Cl)c1CNc1nc(C)c([N+](=O)[O-])c(-n2ccnc2C)n1`, the IC50 is 100 to 500 nM. `Cc1ccccc1CNc1nc(C)c([N+](=O)[O-])c(-n2ccnc2)n1`: the IC50 was greater than 500 nM.

With `Cc1ccccc1CNc1nc(C)c([N+](=O)[O-])c(-n2ccnc2C)n1`, the IC50 fell in the range of 100 to 500 nM.
